# Patent US7582652B2, “Kinase inhibitors” (Eli Lilly and Company, priority 2004, dated 2009)
# How the values were obtained:
# [1] = test system: TNF-α production in mouse peritoneal macrophages; assay: Inhibition of TNF-α in vitro (mouse peritoneal macrophages, LPS/interferon-γ, Luminex); assay type: cell-based; conditions: Mus musculus, Peritoneal macrophage; suppression of TNF-α; macrophages treated with 50 ng/mL LPS and 10 U/mL interferon-γ for 18 h
# Method: Mouse Peritoneal Macrophages
# 1 mL thioglycolate broth (5.0 g yeast extract, 15.0 g casitone or trypticase, 5.0 g dextrose, 2.5 g sodium chloride, 0.75 g L-cystine, 0.5 g sodium thioglycolate, 1.0 mg resazurin, and 0.75 g agar in 1.0 L distilled water) is injected into the peritoneal cavity of Balb/C female mice. At day 4 or 5 post-injection the mice are sacrificed and then injected i.p. with 4 mL RPMI-1640 medium (BioWhittaker) and the peritoneal macrophages are withdrawn by syringe.
# Mouse peritoneal microphages are counted with a hemocytometer and adjusted to 5×10^5 cells/well in 96-well plates in RPMI-1640 medium with 10% fetal bovine serum. 200 μL/well is plated in 96-well plates and the cells allowed to settle and adhere to the bottom of the well for at least 3 h. The test compound or standard p38 kinase inhibitor is pre-treated using a series of 8 concentrations for 1 h at 37° C. (20 μL/well). The cells are treated with a mixture of 50 ng/mL lipopolysaccharide (LPS) and 10 U/mL interferon-γ for 18 h at 37° C. (20 μL/well). The conditioned media is harvested and assayed for TNF-α production using the Luminex procedure.
# TNF-α/Luminex Detection Assay (Bio-Rad Bio-Plex Kit—Catalog #171-G12221)
# The lyophilized premixed TNF-α standard (1 standard tube/two 96-well plates) is reconstituted with 50 μL sterile water (500,000 pg/mL). The samples are vortexed for 5 seconds, incubated on ice for 30 min, and vortexed for 5 seconds before use. A set of twelve 1.5 mL tubes are labeled with #1-thru #12 and then the amounts of cell media shown below added to the appropriate tubes (standard concentrations are as follows: 50,000; 25,000; 12,500; 6,250; 3,125; 1,562.5; 781.3; 390.6; 195.3; 97.7; 48.8; and 24.4 pg/mL). The premixed anti-cytokine conjugated beads are vortexed (25×) vigorously for 30 seconds. The anti-cytokine conjugated beads are diluted to a 1× concentration using 1× Bio-Plex Assay Buffer. For every plate, 240 μL of the pre-mixed beads is added to 5760 μL of Bio-Plex Assay Buffer. A Millipore 96-well filter plate is blocked with 100 μL/well of blocking buffer. The blocking buffer is filtered through using a Millipore filtration system and then toweled dry. 2 washes are performed on the filter plate with 100 μL/well of Bio-Plex Assay Buffer and toweled dry. The 1× anti-cytokine conjugated beads are vortexed for 15 seconds and added 50 μL to each well. This is filtered through and toweled dry. 2 washes are performed on plates with 100 μl/well of Bio-Plex Wash Buffer. Again, it is filtered through and toweled dry. 50 μL of sample or standard is added to each sample well. This is incubated for 60 seconds at RT on a shaker protected from light at setting 6 and then for 30 min at setting 3 and then placed in the refrigerator overnight. 3 washes are performed with Bio-Plex Wash Buffer. Filter through and toweled dry. The cytokine detection antibody is prepared (˜10 min prior to use) for every plate and 60 μL of the premixed cytokine detection antibody stock is added to 5940 μL of Bio-Plex Detection Antibody Diluent. 50 μL of cytokine detection antibody is added and incubated for 60 seconds at RT on a shaker protected from light at setting 6 and then for 30 min at setting 3.3 washes are performed with the Bio-Plex Wash Buffer. This is filtered through and toweled dry. Strept-PE (˜10 minutes prior to use) is prepared for every plate and 60 μL to 5940 μL of Bio-Plex Assay Buffer added. 50 μL of Streptavidin-PE is added to each well and incubated for 60 seconds at RT on a shaker protected from light at setting 6 and then for 10 min at setting 3. 3 washes are performed with Bio-Plex Wash-Buffer. This is filtered through. The beads are re-suspended in 100 μL/well of Bio-Plex Assay Buffer. Standards and samples are read on a Luminex machine. […]
# [2] = target: p38 kinase enzyme (Homo sapiens, UniProt Q16539); assay: Inhibition of p38 kinase; assay type: biochemical; conditions: 33P-ATP, EGF peptide 661-681, 30° C.
# Sequence of p38 kinase enzyme (Q16539 whole entry): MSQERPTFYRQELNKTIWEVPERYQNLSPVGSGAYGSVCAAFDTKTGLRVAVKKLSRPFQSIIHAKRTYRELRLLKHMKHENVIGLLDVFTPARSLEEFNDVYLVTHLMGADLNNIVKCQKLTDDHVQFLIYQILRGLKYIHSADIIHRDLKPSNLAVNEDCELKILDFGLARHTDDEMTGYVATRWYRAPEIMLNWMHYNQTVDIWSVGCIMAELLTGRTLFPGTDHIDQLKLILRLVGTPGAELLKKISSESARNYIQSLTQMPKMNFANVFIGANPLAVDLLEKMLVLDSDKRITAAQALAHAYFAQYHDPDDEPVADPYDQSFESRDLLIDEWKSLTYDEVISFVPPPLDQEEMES
# Method: Standard Solution Preparations
# The kinase buffer solution is prepared by combining 2.5 mL 1 M Tris-HCl (pH 7.5), 0.1 ml 1 M dithiothreitol, 1.0 mL 1 M magnesium chloride, and 300 μL 1% Triton X-100 and diluting to 100 mL with water. 84 mL of this kinase buffer solution is combined with 16 mL DMSO to prepare the 16% DMSO solution.
# The 200 μM ATP solution is prepared by adding 102.6 μL 10 mM aqueous ATP, 25 μL ^33P-ATP, and 163.5 μL of 4 mM aqueous Epidermal Growth Factor Peptide 661-681 (Biomol, Catalog #P-121) in 5 mL kinase buffer solution.
# The p38 kinase enzyme solution is prepared by dissolving 9.5 μL concentrated enzyme solution (250 ng p38 enzyme/μL kinase buffer solution) in 1536 μL kinase buffer solution.
# An 80 μM solution of each test compound and control compound are prepared by dissolving 2 μL of a 10 mM stock solution of the respective compounds in dimethylsulfoxide in 248 μL of the 16% DMSO solution in a Costar 96-well microtiter plate. The plate is placed onto the Tecan Genesis automated liquid handler for 1:3 serial dilutions.
# 10 μL of serially diluted compound is placed with a Beckmnan Multimek 96-well automated liquid handler to the assay plate. […] of 200 μM ATP solution is added with a Titertek Multidrop 8-channel liquid handler. 10 μL of p38 kinase enzyme solution is transferred to the assay plate using the Multimek. The mixture is allowed to react for […] and then the reaction is stopped by adding 60 μL of freshly prepared 5% glacial AcOH with Multidrop. 80 μL of this solution is transferred to an “MAPH” plate using the Multimek. The plates are allowed to set for 30 min at RT and then washed/aspirated on the Titertek MAP extractor with freshly prepared 0.5% glacial AcOH (1×300 μL, 2×200 μL). The wells are blotted and 100 μL MicroScint-20 scintillation fluid (Packard Bioscience) is added with the Multidrop. The plates are allowed to sit for 30 min and counted on a PE/Wallac Microbeta Trilux scintillation counter for ^33P-isotope.
# All exemplified compounds were initially tested at 10 concentrations (20 μM−1 nM using 1:3 serial dilutions). […] IC50 values were calculated (IDBS ActivityBase software) for each compound using non-linear regression.
IC50 [1] [nM],IC50 [2] [nM],SMILES
1.2,–,"CC(C)(C)Cn1c(N)nc2ccc(-c3[nH]c(C(C)(C)C)nc3-c3ccc(F)cc3)nc21 [EXAMPLE 9, 5-[2-tert-Butyl-5-(4-fluorophenyl)-3H-imidazol-4-yl]-3-(2,2-dimethylpropyl)-3H-imidazo[4,5-b]pyridin-2-ylamine methanesulfonate]"
< 9.1,3.6,"CC(C)(C)Cn1c(N)nc2ccc(-c3[nH]c(-c4c(F)cccc4Cl)nc3-c3ccccc3)nc21 [compound 18, 5-[2-(2-Chloro-6-fluorophenyl)-5-phenyl-3H-imidazol-4-yl]-3-(2,2-dimethylpropyl)-3H-imidazo[4,5-b]pyridin-2-ylamine methanesulfonate]"
< 9.1,7.2,"CC(C)(C)Cn1c(N)nc2ccc(-c3[nH]c(-c4c(F)cccc4C(F)(F)F)nc3-c3ccccc3)nc21 [EXAMPLE 6, 3-(2,2-Dimethylpropyl)-5-[2-(2-fluoro-6-trifluoromethylphenyl)-5-phenyl-3H-imidazol-4-yl]-3H-imidazo[4,5-b]pyridin-2-ylamine methanesulfonate]"
< 9.1,3.2,"Nc1nc2ccc(-c3[nH]c(-c4c(F)cccc4F)nc3-c3ccccc3)nc2n1CC1CC1 [compound 19, 3-Cyclopropylmethyl-5-[2-(2,6-difluorophenyl)-5-phenyl-3H-imidazol-4-yl]-3H-imidazo[4,5-b]pyridin-2-ylamine methanesulfonate]"
2.4,–,"CC(C)(C)Cn1c(N)nc2ccc(-c3[nH]c(C(C)(C)C)nc3-c3ccc(F)cc3F)nc21 [EXAMPLE 11, 5-[2-tert-Butyl-5-(2,4-difluorophenyl)-3H-imidazol-4-yl]-3-(2,2-dimethylpropyl)-3H-imidazo[4,5-b]pyridin-2-ylamine methanesulfonate]"
–,3.6,"C[C@@H](n1c(N)nc2ccc(-c3[nH]c(C(C)(C)C)nc3-c3ccc(F)cc3)nc21)C(C)(C)C [compound 12, R-5-[2-tert-Butyl-5-(4-fluorophenyl)-3H-imidazol-4-yl]-3-(1,2,2-trimethylpropyl)-3H-imidazo[4,5-b]pyridin-2-ylamine methanesulfonate]"
< 9.1,3.3,"C[C@@H](n1c(N)nc2ccc(-c3[nH]c(-c4c(F)cccc4F)nc3-c3ccc(F)cc3)nc21)C(C)(C)C [compound 13, R-5-[2-(2,6-Difluorophenyl)-5-(4-fluorophenyl)-3H-imidazol-4-yl]-3-(1,2,2-trimethylpropyl)-3H-imidazo[4,5-b]pyridin-2-ylamine methanesulfonate]"
